Like-named read-outs stand apart in the source and are kept apart here.
Columns and labels:
[1] = type: in vitro ADME; details: human, pH 7.4
Procedure: An in vitro skin permeation study was conducted using one ondansetron transdermal patch. The formulations used to prepare these systems are listed in Table 1, which includes weight and percent weight of each component of the dried formulations. “PVPP’ refers to a commercially available polyvinyl polypyrrolidone powder, which was added in an amount sufficient to balance the liquid nature of other solubizing agents in order to maintain the physical integrity of the patch. Other suitable and generally inert powders that can be used will become apparent to those skilled in the art, given the present description. “Duratak” is a tradename and refers to a commercially available polyisobutylene adhesive liquid available from National Starch and Chemical.
Each formulation was coated on a release liner and dried in an oven at 65° C. for two hours to remove water and other solvents. […]
The in vitro permeation of ondansetron through human cadaver skin from these discs was performed using Franz diffusion cells with a diffusion area of 1 cm^2 and a receiver solution capacity of 8 ml. […] The receiver solution collected was analyzed by HPLC to determine the concentration of ondansetron. The cumulative amount of ondansetron that permeated across the human cadaver skin was calculated using the measured ondansetron concentrations in the receiver solutions, which were plotted versus time and shown in FIG. 1. […]

Final pH of the patch = type: physicochemical; details: pH of the transdermal patch

cumulative amount of ondansetron that permeated through the skin ([1]; 24 h): 0.26 mg/cm^2 | cumulative amount of ondansetron that permeated through the skin ([1]; 51 h): 0.51 mg/cm^2 | final patch pH (Final pH of the patch): 4.7
SMILES: Cc1nccn1CC1CCc2c(c3ccccc3n2C)C1=O (stereo not drawn) [ondansetron, 1,2,3,9-tetrahydro-9-methyl-3-[(2-methyl-1H-imidazol-1-yl)methyl]-4H-carbazol-4-one]

Reference: patent publication US20080262445A1, “Transdermal Delivery of Hydrophobic Bioactive Agents” (DERMATRENDS, INC., priority 2004, published 2008)
